The values that follow come from US20090328243A1, “Secreted proteins as markers for cell differentiation” (priority 2003, published 2009).

Where two headings read alike, the source gives them in different places.

Test [1] concerns ES cells stably transfected with the α-MHC-SEAP vector (D3 mouse embryonic stem cells), differentiation into cardiac cells. The conditions noted are these: EB culture supernatants after 13 days.
Experimental: After 13 days culture supernatants were assayed for SEAP activity. Shown are mean values of duplicate samples from which background SEAP activity was substracted. Activities are expressed as percentage of SEAP activity in samples containing only solvent (DMSO) but no retinoic acid.
All incubations of cell cultures were performed at 37° C. in a humidified atmosphere containing 5% CO2.
Cells were collected by centrifugation (800 g for 5 min) and resuspended in Iscove's Modified Dulbecco's Medium (IMDM, Invitrogen) supplemented with 20% (v/v) fetal bovine serum (FBS, Invitrogen) at a density of 2×10^6 cells/ml. To aggregate ES cells, 4 ml of this suspension were incubated on a 6 cm bacteriological dish (Greiner) on a rocking platform (GFL 3006) with agitation (50 rpm). After 6 hours, 2 ml of that culture were added to 13 ml IMDM containing 20% FBS in a T25 flask (Falcon). The flask was incubated with rocking (50 rpm; GFL 3006) for 18 hours. During this procedure ES cell aggregates (embryoid bodies; EBs) were formed.
In 10 cm petri dishes (bacteriological grade, Greiner) medium was prepared consisting of IMDM supplemented with 20% FBS and retinoic acid added from above stocks to yield final concentrations of 10^−7 M, 10^−8 M, 10^−9 M, 10^−10 M, 10^−11 M, and 10^−12 M retinoic acid, respectively. One dish received DMSO (final concentration 0.1% (v/v)) without retinoic acid (solvent control). Each dish contained 10 ml of medium. 70 EBs were transferred into each petri dish and incubated for 4 days.
Subsequently, EBs were transferred to 6-well plates (tissue culture grade; Becton-Dickinson). Each well contained 3 ml IMDM with 20% FBS and retinoic acid and DMSO as described above for the culture in 10 cm dishes. […]
Samples were assayed for SEAP activity using the Great EscAPe SEAP Fluorescence Detection Kit (Becton-Dickinson) following the manufacturer's instructions. Fluorescence was measured using a microplate reader (Safire, Tecan). Background activity was determined by assaying a sample of fresh medium (Knockout™ D-MEM supplemented with 20% (v/v) Knockout™ SR).
In test [2] the test system is ES cells. The conditions noted are these: in vitro; literature (Seiler et al., ALTEX 2002); cited from earlier work.

`CC1=C(/C=C/C(C)=C/C=C/C(C)=C/C(=O)O)C(C)(C)CCC1` [retinoic acid, all-trans retinoic acid]: the SEAP activity result is “decreased sharply” in test [1] (10^−8 M retinoic acid, solvent (DMSO) control) and “no activity was observed” in test [1] (retinoic acid at concentrations higher than 10^−8 M (10^−7 M)). For the same molecule, the “SEAP activity as compared to controls” value in test [1] (retinoic acid below 10^−9 M, solvent (DMSO) control) is on record as “no influence”. In addition, the “generation of cardiomyocytes from ES cells” value in test [2] is on record as “inhibit the generation of cardiomyocytes”.
